The target of one test is human PPARγ2 (Homo sapiens (Human), UniProt P37231). Description: PPARγ activation effect, Gal4-PPARγ2 LBD luciferase transfection assay in COS7 cells. The class given is cell-based. The note with it: Gal4-human PPARγ2 LBD chimera, luciferase reporter; for EC50: 16 hours, rosiglitazone = 100%. On the procedure: The agonistic activity of the compounds of the invention on PPARγ was measured based on the transfection assay using COS7 cells (DS Pharma Biomedical Co., Ltd., Osaka, Japan), which are the cell line derived from the kidney of the African green monkey. COS7 cells were cultured under 5% CO2 concentration, and DMEM medium containing 10% fetal bovine serum, glutamic acid, and antibiotics was used as a medium.
Chain of human PPARγ2 (P37231 182-505): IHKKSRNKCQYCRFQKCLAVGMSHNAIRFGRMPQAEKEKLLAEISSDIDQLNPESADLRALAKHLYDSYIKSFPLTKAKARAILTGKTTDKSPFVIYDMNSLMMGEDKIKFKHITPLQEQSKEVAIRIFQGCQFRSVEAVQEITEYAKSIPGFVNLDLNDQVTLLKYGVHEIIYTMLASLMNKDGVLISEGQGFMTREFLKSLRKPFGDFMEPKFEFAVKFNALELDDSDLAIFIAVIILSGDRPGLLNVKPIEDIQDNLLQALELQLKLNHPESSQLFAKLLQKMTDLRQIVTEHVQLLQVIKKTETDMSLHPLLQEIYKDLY
As an expression vector, a chimera in which DNA binding domain of Gal4, which is a yeast transcription factor, and ligand binding domain of human PPARγ2 are fused, i.e., a fused product between the amino acids 1 to 147 of Gal4 transcription factor and the amino acids 182 to 505 of human PPARγ2, was used. Furthermore, as a reporter vector, a firefly luciferase containing five copies of Gal4 recognition sequence in the promoter region was used. Plasmid transfection to the cells was performed according to a method which uses jetPEI (trade name, manufactured by Funakoshi Co., Ltd., Tokyo, Japan). Furthermore, β-galactosidase expression vector was employed as an internal standard.
After the transfection into the cells, the medium was replaced with a DMEM medium (containing 1% serum) added with the test compound, and the cells were further cultured for 16 hours. After that, the luciferase activity and β-galactosidase activity in the cell lysis solution were measured.
Meanwhile, for the present test, dimethylsulfoxide (DMSO) was used for dissolution and dilution of the test compounds, and during the cell treatment, the DMSO concentration in DMEM medium (containing 1% serum) was adjusted to 0.1%. As a positive compound, rosiglitazone (trade name, manufactured by ALEXIS Corporation, Switzerland) was used. The percentage (%) of the luciferase activity of the each test compound (1 to 30 μmol/L) was calculated when the luciferase activity of rosiglitazone (3 to 10 μmol/L) is 100% and the luciferase activity in the absence of the test compound is 0%. The 50% effective concentration of the test compound (EC50, 50% effect concentration) was calculated by using SAS Preclinical Package Ver 5.0 (trade name, manufactured by SAS institute Japan Co., Tokyo, Japan), which is a statistical analysis program.
Background: In a reporter assay the amount or activity of a reporter protein is the signal.

The target of test [1] is angiotensin II type 1 receptor (Oryctolagus cuniculus (Rabbit), UniProt P34976). Briefly: Angiotensin II antagonistic activity in isolated rabbit blood vessels (angiotensin II-induced contraction of thoracic aorta ring). To be noted: test compound 0.1 μM, angiotensin II 10 nM-induced contraction, read-out: Rate (%) of inhibiting angiotensin II activity at concentration of 0.1 μM.
Chain of angiotensin II type 1 receptor (P34976 whole entry): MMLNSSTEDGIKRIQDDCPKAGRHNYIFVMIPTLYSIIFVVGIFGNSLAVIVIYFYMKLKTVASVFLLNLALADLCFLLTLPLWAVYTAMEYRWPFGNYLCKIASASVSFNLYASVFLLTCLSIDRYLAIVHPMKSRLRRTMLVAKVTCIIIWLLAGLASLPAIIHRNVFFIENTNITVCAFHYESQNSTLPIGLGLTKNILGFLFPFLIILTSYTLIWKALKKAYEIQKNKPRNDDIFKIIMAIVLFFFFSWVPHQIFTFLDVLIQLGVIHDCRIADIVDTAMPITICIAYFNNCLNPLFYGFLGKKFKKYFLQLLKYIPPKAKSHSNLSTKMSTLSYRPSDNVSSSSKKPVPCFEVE
Experimental: By using a specimen of isolated rabbit blood vessels, antagonistic activity of the compounds of the invention against angiotensin II type 1 receptor was calculated from a dose-response curve of angiotensin II-induced blood vessel contraction. Specifically, the specimen of thoracic aorta ring of a rabbit (New Zealand White: male, 2.4 to 3.0 kg) was suspended in a rmagnus bath filled with Krebs-Henseleite buffer (composition: 118 mM NaCl, 4.7 mM KCl, 2.55 mM CaCl2, 1.18 mM MgSO4, 1.18 mM KH2PO4, 24.88 mM NaHCO3, and 11.1 mM D-glucose), and angiotensin II (10 n M)-induced contraction was obtained in the presence of each test compound (1 n mol/L to 10 μmol/L). During the measurement, the inside temperature of the magnus bath was maintained at 37° C. and the bath was continuously ventilated with a sufficient amount of mixed gas (95% O2 and 5% CO2). The angiotensin II-induced contraction was converted into a relative value (%) that is based on the angiotensin II (0.1 μM)-induced contraction in the absence of the test compound.

From US9315493B2, “Phenylpyridine derivative and drug containing same” (KOWA COMPANY, LTD., priority 2011, dated 2016) come the findings set out here.

Structures are written as SMILES.

With `CCCc1nc(C(C)C)n(-c2ncc(OCC)cn2)c(=O)c1Cc1ccc(-c2ccccc2-c2noc(=O)[nH]2)nc1` [Example 40, 3-{2-{5-{[1-(5-ethoxypyrimidin-2-yl)-2-isopropyl-6-oxo-4-propyl-1,6-dihydropyrimidin-5-yl]methyl}pyridin-2-yl}phenyl}-1,2,4-oxadiazol-5(4H)-one], on human PPARγ2, the “% MAX vs Rosiglitazone (maximum activity strength relative to the maximum activity of rosiglitazone)” value was 69% and a half-maximal effect (EC50) was put at 400 nM. Moreover, the inhibition at 0.1 µM in test [1] was 68.3%.
As for `CCCc1nc(C2CC2)n(-c2ncc(OCC)cn2)c(=O)c1Cc1ccc(-c2ccccc2-c2noc(=O)[nH]2)nc1` [Example 41, 3-{2-{5-{[2-cyclopropyl-1-(5-ethoxypyrimidin-2-yl)-6-oxo-4-propyl-1,6-dihydropyrimidin-5-yl]methyl}pyridin-2-yl}phenyl}-1,2,4-oxadiazol-5(4H)-one], on human PPARγ2, the “% MAX vs Rosiglitazone (maximum activity strength relative to the maximum activity of rosiglitazone)” value was 65% and a half-maximal effect (EC50) was put at 560 nM. Further, the inhibition at 0.1 µM in test [1] worked out at 89.9%.
On to `CCCCCc1nc(C(C)C)n(-c2ncc(OCC)cn2)c(=O)c1Cc1ccc(-c2ccccc2-c2noc(=O)[nH]2)nc1` [Example 42, 3-{2-{5-{[1-(5-ethoxypyrimidin-2-yl)-2-isopropyl-6-oxo-4-pentyl-1,6-dihydropyrimidin-5-yl]methyl}pyridin-2-yl}phenyl}-1,2,4-oxadiazol-5(4H)-one], for which, at human PPARγ2, the “% MAX vs Rosiglitazone (maximum activity strength relative to the maximum activity of rosiglitazone)” value worked out at 53% and the EC50 worked out at 650 nM.
For `CCCCCc1nc(C2CC2)n(-c2ncc(OCC)cn2)c(=O)c1Cc1ccc(-c2ccccc2-c2noc(=O)[nH]2)nc1` [Example 43, 3-{2-{5-{[2-cyclopropyl-1-(5-ethoxypyrimidin-2-yl)-6-oxo-4-pentyl-1,6-dihydropyrimidin-5-yl]methyl}pyridin-2-yl}phenyl}-1,2,4-oxadiazol-5(4H)-one], at human PPARγ2, the “% MAX vs Rosiglitazone (maximum activity strength relative to the maximum activity of rosiglitazone)” value is 42% and the EC50 stood at 590 nM.
As for `CCCc1nc2c(C)cc(-c3nc4ccccc4n3C)cc2n1Cc1ccc(-c2ccccc2C(=O)O)cc1` [telmisartan, reference compound], the inhibition at 0.1 µM in test [1] stood at 85.3%.

What is called EC50 is the concentration giving half of the maximal effect. High values mean a need for much substance, low ones an effect from little substance.
